{"source": "patent EP4803519A1", "about": "“NOVEL PRMT5 INHIBITOR AND USE THEREOF” (Shanghai Apeiron Therapeutics Company Limited, priority 2023, dated 2025)", "key": {"HCT-116 wild-type cells": {"system": "HCT-116 wild-type cells", "experiment": "Inhibitory activity on proliferation of HCT-116 wild-type cells (Cell-Titer Glo)", "type": "cell-based", "details": "Homo sapiens, 144 h, incubated 6 d, 0-10,000 nM", "description": "(§1) Materials and cells: HCT-116 wild-type cells were purchased from Kyinno Biotechnology (China); RPMI-1640 medium, and fetal bovine serum were purchased from Thermo Fisher (United States); 384-well plates were purchased from PerkinElmer (United States); Cell-Titer Glo kit was purchased from Promega (United States).\nCell culture: HCT-116 wild-type cells were cultured in RPMI-1640 medium containing 10% fetal bovine serum at 37°C and 5% carbon dioxide. Only cells in the logarithmic growth phase could be used for the test.\nTest of cell proliferation activity: Cell-Titer Glo kit was used to test the proliferation inhibitory activity of the compound on HCT-116 wild-type cells. The cell concentration was adjusted, rendering that cells were inoculated into a 384-well plate at 40 µL per well and incubated overnight at 37°C and 5% carbon dioxide. 80 nL of the compound was added to each well to reach a final concentration of 0-10,000 nM (starting concentration 10,000 nM, 2.5-fold dilution, 10 points), and the cell plate with 0.2% DMSO content was incubated at 37°C and 5% carbon dioxide for 6 d. 40 µL of Cell-Titer Glo reagent was added to test cell viability."}, "[1]": {"system": "HCT-116 MTAP(-/-)deleted cells", "experiment": "Inhibitory activity on proliferation of HCT-116 MTAP(-/-)deleted cells (Cell-Titer Glo)", "type": "cell-based", "details": "Homo sapiens, 144 h, incubated 6 d, 0-1,000 nM", "description": "as §1, with “MTAP(-/-)deleted” for “wild-type”\nCell culture: HCT116 MTAP(-/-)deleted cells were cultured with RPMI 1640 medium containing 10% fetal bovine serum at 37°C in 5% carbon dioxide. Only cells in the logarithmic growth phase could be used for the test.\nTest of inhibitory activity on cell proliferation: The Cell-Titer Glo kit was used to test the proliferation inhibitory activity of the compounds on HCT-116 MTAP(-/-)deleted cells. The cell concentration was adjusted, rendering that cells were inoculated into a 384-well plate at 40 µL per well and incubated overnight at 37°C and 5% carbon dioxide. 80 nL of the compound was added into each well to reach a final concentration of 0-1,000 nM (starting concentration 1,000 nM, 2.5-fold dilution, 10 points), and the cell plate with 0.2% DMSO content was incubated at 37°C and 5% carbon dioxide for 6 d. 40 µL of Cell-Titer Glo reagent was added to test cell viability."}}, "data": [{"smiles": "CN(C(=O)c1ccc2nc(N)c3cnn(C)c3c2c1)C1COC(C)(C)c2cc(C(F)(F)F)ccc21", "note": "(stereo not drawn) [Example 1, 4-amino-N-(1,1-dimethyl-7-(trifluoromethyl)isochroman-4-yl)-N,1-dimethyl-1H-pyrazolo [4,3-c] quinoline-8-carboxamide]", "values": [{"measurement": "IC50", "setting": "HCT-116 wild-type cells", "value": 1200, "unit": "nM"}, {"measurement": "IC50", "setting": "[1]", "value": 5.2, "unit": "nM"}]}, {"smiles": "CN(C(=O)c1ccc2nc(N)c3c(c2c1)OCCO3)C1COC(C)(C)c2cc(C(F)(F)F)ccc21", "note": "(stereo not drawn) [Example 2, 5-Amino-N-(1,1-dimethyl-7-(trifluoromethyl)isochroman-4-yl)-N-methyl-2,3-dihydro-[1,4]dioxa[2,3-c]quinoline-9-carboxamide]", "values": [{"measurement": "IC50", "setting": "HCT-116 wild-type cells", "value": "> 10000", "unit": "nM"}, {"measurement": "IC50", "setting": "[1]", "value": "> 3000", "unit": "nM"}]}, {"smiles": "CN(C(=O)c1ccc2nc(N)c3ccsc3c2c1)C1COC(C)(C)c2cc(C(F)(F)F)ccc21", "note": "(stereo not drawn) [Example 3, 4-Amino-N-(1,1-dimethyl-7-(trifluoromethyl)isochroman-4-yl)-N-methylthieno[3,2-c]quinoline-8-carboxamide]", "values": [{"measurement": "IC50", "setting": "HCT-116 wild-type cells", "value": 7540, "unit": "nM"}, {"measurement": "IC50", "setting": "[1]", "value": 435, "unit": "nM"}]}, {"smiles": "CN(C(=O)c1ccc2nc(N)c3c(c2c1)CCC3)C1COC(C)(C)c2cc(C(F)(F)F)ccc21", "note": "(stereo not drawn) [Example 11, 4-Amino-N-(1,1-dimethyl-7-(trifluoromethyl)isochroman-4-yl)-N-methyl-2,3-dihydro-1H-cyclopenta[c]quinoline-8-carboxamide]", "values": [{"measurement": "IC50", "setting": "HCT-116 wild-type cells", "value": 3120, "unit": "nM"}, {"measurement": "IC50", "setting": "[1]", "value": 147, "unit": "nM"}]}, {"smiles": "CN(C(=O)c1ccc2nc(N)c3c(c2c1)CCCC3)C1COC(C)(C)c2cc(C(F)(F)F)ccc21", "note": "(stereo not drawn) [Example 19, 6-Amino-N-(1,1-dimethyl-7-(trifluoromethyl)isochroman-4-yl)-N-methyl-7,8,9,10-tetrahydrophenanthridine-2-carboxamide]", "values": [{"measurement": "IC50", "setting": "HCT-116 wild-type cells", "value": 7210, "unit": "nM"}, {"measurement": "IC50", "setting": "[1]", "value": 318, "unit": "nM"}]}, {"smiles": "CN(C(=O)c1ccc2nc(N)c3ccccc3c2c1)C1COC(C)(C)c2cc(C(F)(F)F)ccc21", "note": "(stereo not drawn) [Example 20, 6-Amino-N-(1,1-dimethyl-7-(trifluoromethyl)isochroman-4-yl)-N-methylphenanthridine-2-carboxamide]", "values": [{"measurement": "IC50", "setting": "HCT-116 wild-type cells", "value": 5870, "unit": "nM"}, {"measurement": "IC50", "setting": "[1]", "value": 738, "unit": "nM"}]}, {"smiles": "CN(C(=O)c1cc2c(cn1)nc(N)c1cnn(C)c12)C1COC2(CCC2)c2cc(C(F)(F)F)ccc21", "note": "(stereo not drawn) [Example 31]", "values": [{"measurement": "IC50", "setting": "HCT-116 wild-type cells", "value": 285, "unit": "nM"}, {"measurement": "IC50", "setting": "[1]", "value": 6.2, "unit": "nM"}]}, {"smiles": "CN(C(=O)c1ccc2nc(N)c3cnn(C)c3c2c1)C1COC(C)(C)c2cc(-c3cnc4cnccn34)ccc21", "note": "(stereo not drawn) [Example 48]", "values": [{"measurement": "IC50", "setting": "HCT-116 wild-type cells", "value": 435, "unit": "nM"}, {"measurement": "IC50", "setting": "[1]", "value": 7.9, "unit": "nM"}]}, {"smiles": "CN(C(=O)c1ccc2nc(N)c3cnn(C)c3c2c1)C1COC2(CCC2)c2nc(N3CCOCC3)ccc21", "note": "(stereo not drawn) [Example 53, 4-amino-N,1-dimethyl-N-(2'-morpholino-5',6'-dihydrospiro[cyclobutane-1,8'-pyrano[3,4-b]pyridin]-5'-yl)-1H-pyrazolo[4,3-c]quinoxaline-8-carboxamide]", "values": [{"measurement": "IC50", "setting": "HCT-116 wild-type cells", "value": "> 10000", "unit": "nM"}, {"measurement": "IC50", "setting": "[1]", "value": 312, "unit": "nM"}]}, {"smiles": "CN(C(=O)c1ccc2nc(N)c3cnn(C)c3c2c1)[C@@H]1COC(C)(C)c2nc(N3CCOCC3)ccc21", "note": "[Example 54]", "values": [{"measurement": "IC50", "setting": "HCT-116 wild-type cells", "value": 1810, "unit": "nM"}, {"measurement": "IC50", "setting": "[1]", "value": 5.8, "unit": "nM"}]}, {"smiles": "CN(C(=O)c1ccc2nc(N)c3cnn(C)c3c2c1)[C@@H]1COC(C)(C)c2cc(N3CCOCC3)ncc21", "note": "[Example 55]", "values": [{"measurement": "IC50", "setting": "HCT-116 wild-type cells", "value": "> 10000", "unit": "nM"}, {"measurement": "IC50", "setting": "[1]", "value": 20.2, "unit": "nM"}]}, {"smiles": "CN(C(=O)c1ccc2nc(N)c3cnn(C)c3c2c1)[C@@H]1COC(C)(C)c2cc(N3CC4COCC4C3)ccc21", "note": "(stereo partly drawn) [Example 56, 4-Amino-N-((4S)-1,1-dimethyl-7-(tetrahydro-1H-furo[3,4-c]pyrrol-5(3H)-yl)isochroman-4-yl)-N,1-dimethyl-1H-pyrazolo[4,3-c]quinoxaline-8-carboxamide]", "values": [{"measurement": "IC50", "setting": "HCT-116 wild-type cells", "value": 1330, "unit": "nM"}, {"measurement": "IC50", "setting": "[1]", "value": 4.4, "unit": "nM"}]}, {"smiles": "CN(C(=O)c1ccc2nc(N)c3cnn(C)c3c2c1)[C@@H]1COC(C)(C)c2cc(C3=CCOCC3)ccc21", "note": "[Example 57, (S)-4-amino-N-(7-(3,6-dihydro-2H-pyran-4-yl)-1,1-dimethylisochroman-4-yl)-N,1-dimethyl-1H-pyrazolo[4,3-c]quinoxaline-8-carboxamide]", "values": [{"measurement": "IC50", "setting": "HCT-116 wild-type cells", "value": 880, "unit": "nM"}, {"measurement": "IC50", "setting": "[1]", "value": 5.2, "unit": "nM"}]}, {"smiles": "CN(C(=O)c1ccc2nc(N)c3cnn(C)c3c2c1)C1COC(C)(C)c2cc(N3CCC(F)(F)C3)ccc21", "note": "(stereo not drawn) [Example 74, 4-Amino-N-(7-(3,3-difluoropyrrolidin-1-yl)-1,1-dimethylisochroman-4-yl)-N,1-dimethyl-1H-pyrazolo[4,3-c]quinoxaline-8-carboxamide]", "values": [{"measurement": "IC50", "setting": "HCT-116 wild-type cells", "value": 2110, "unit": "nM"}, {"measurement": "IC50", "setting": "[1]", "value": 10.5, "unit": "nM"}]}, {"smiles": "CN(C(=O)c1ccc2nc(N)c3cnn(C)c3c2c1)[C@@H]1COC(C)(C)c2cc(N3CCC4(CC3)COC4)ccc21", "note": "[Example 75, (S)-4-amino-N-(1,1-dimethyl-7-(2-oxa-7-azaspiro[3.5]nonan-7-yl)isochroman-4-yl)-N,1-dimethyl-1H-pyrazolo[4,3-c]quinoxaline-8-carboxamide]", "values": [{"measurement": "IC50", "setting": "HCT-116 wild-type cells", "value": 2610, "unit": "nM"}, {"measurement": "IC50", "setting": "[1]", "value": 8.2, "unit": "nM"}]}, {"smiles": "CN(C(=O)c1ccc2nc(N)c3cnn(C)c3c2c1)[C@@H]1COC(C)(C)c2cc(N3CC(F)(F)C3)ccc21", "note": "[Example 76, (S)-4-amino-N-(7-(3,3-difluoroazetidin-1-yl)-1,1-dimethylisochroman-4-yl)-N,1-dimethyl-1H-pyrazolo[4,3-c]quinoxaline-8-carboxamide]", "values": [{"measurement": "IC50", "setting": "HCT-116 wild-type cells", "value": 2520, "unit": "nM"}, {"measurement": "IC50", "setting": "[1]", "value": 6.1, "unit": "nM"}]}, {"smiles": "CN(C(=O)c1cc2c(cc1C(F)(F)F)nc(N)c1cnn(C)c12)[C@@H]1COC2(CCC2)c2cc(C(F)(F)F)ccc21", "note": "[Example 77]", "values": [{"measurement": "IC50", "setting": "HCT-116 wild-type cells", "value": 1030, "unit": "nM"}, {"measurement": "IC50", "setting": "[1]", "value": 9.8, "unit": "nM"}]}, {"smiles": "Cn1ncc2c(N)nc3cnc(C(=O)N(C4CC4)C4COC5(CCC5)c5cc(C(F)(F)F)ccc54)cc3c21", "note": "(stereo not drawn) [Example 87, 4-Amino-N-cyclopropyl-1-methyl-N-(7'-(trifluoromethyl)spiro[cyclobutane-1,1'-isochroman]-4'-yl)-1H-pyrazolo[4,3-c][1,7]naphthyridine-8-carboxamide]", "values": [{"measurement": "IC50", "setting": "HCT-116 wild-type cells", "value": 763, "unit": "nM"}, {"measurement": "IC50", "setting": "[1]", "value": 11.2, "unit": "nM"}]}]}
